“Also recorded” adds a separate entry of the source. Read-outs that look alike come from different tables or passages of the source.
Legend:
JAK1_C817 [1] = biological target: T1, JAK1_C817 (Homo sapiens, UniProt P23458); assay: Targeted MS-ABPP target engagement (TE50) in human cell lysates; format: binding
[2] = tested on: IFNα-stimulated STAT1 phosphorylation; assay: HTRF phospho-STAT1 assay in human PBMCs; format: cell-based; settings: read-out: IC50, IFNα-stimulated STAT1 phosphorylation (HTRF)
JAK1_C817 [3] = biological target: T1, JAK1_C817; assay: Untargeted cysteine MS-ABPP, human PBMCs treated in situ; format: binding
HMOX2_C282 = biological target: T2, HMOX2_C282 (Homo sapiens, UniProt P30519); assay: as above; format: binding
T2 sequence (P30519 1-316): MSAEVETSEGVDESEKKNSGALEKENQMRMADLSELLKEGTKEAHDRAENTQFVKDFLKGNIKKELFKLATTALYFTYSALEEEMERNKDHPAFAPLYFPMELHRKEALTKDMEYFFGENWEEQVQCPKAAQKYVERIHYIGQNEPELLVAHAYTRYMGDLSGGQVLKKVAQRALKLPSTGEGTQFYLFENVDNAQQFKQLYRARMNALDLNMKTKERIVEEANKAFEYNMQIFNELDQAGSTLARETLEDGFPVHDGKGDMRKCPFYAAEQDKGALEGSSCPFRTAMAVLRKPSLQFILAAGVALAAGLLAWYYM

TOR4A_C21 [4] = biological target: T3, TOR4A_C21 (Homo sapiens, UniProt Q9NXH8); assay: as above; format: binding
T3 sequence (Q9NXH8 whole entry): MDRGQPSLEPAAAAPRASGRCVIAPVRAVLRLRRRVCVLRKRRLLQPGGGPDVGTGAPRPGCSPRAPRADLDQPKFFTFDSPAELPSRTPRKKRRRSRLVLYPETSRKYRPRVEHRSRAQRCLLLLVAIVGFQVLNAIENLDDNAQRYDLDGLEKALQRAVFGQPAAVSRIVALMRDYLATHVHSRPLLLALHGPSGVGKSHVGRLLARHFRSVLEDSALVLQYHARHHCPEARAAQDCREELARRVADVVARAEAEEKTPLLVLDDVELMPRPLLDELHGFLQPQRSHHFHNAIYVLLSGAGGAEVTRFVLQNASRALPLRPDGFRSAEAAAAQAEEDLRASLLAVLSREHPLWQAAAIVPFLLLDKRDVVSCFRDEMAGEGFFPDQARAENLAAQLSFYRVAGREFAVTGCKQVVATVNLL

TOR4A_C21 [5] = biological target: T3, TOR4A_C21; assay: Untargeted cysteine MS-ABPP, human PBMC lysates treated in vitro; format: binding; settings: PBMC lysate in vitro, 1 h
TYK2_C838 = TYK2_C838 (Homo sapiens, UniProt P29597); assay: as above; format: binding; settings: PBMC lysate in vitro, 1 h
Chain of TYK2_C838 (P29597 whole entry): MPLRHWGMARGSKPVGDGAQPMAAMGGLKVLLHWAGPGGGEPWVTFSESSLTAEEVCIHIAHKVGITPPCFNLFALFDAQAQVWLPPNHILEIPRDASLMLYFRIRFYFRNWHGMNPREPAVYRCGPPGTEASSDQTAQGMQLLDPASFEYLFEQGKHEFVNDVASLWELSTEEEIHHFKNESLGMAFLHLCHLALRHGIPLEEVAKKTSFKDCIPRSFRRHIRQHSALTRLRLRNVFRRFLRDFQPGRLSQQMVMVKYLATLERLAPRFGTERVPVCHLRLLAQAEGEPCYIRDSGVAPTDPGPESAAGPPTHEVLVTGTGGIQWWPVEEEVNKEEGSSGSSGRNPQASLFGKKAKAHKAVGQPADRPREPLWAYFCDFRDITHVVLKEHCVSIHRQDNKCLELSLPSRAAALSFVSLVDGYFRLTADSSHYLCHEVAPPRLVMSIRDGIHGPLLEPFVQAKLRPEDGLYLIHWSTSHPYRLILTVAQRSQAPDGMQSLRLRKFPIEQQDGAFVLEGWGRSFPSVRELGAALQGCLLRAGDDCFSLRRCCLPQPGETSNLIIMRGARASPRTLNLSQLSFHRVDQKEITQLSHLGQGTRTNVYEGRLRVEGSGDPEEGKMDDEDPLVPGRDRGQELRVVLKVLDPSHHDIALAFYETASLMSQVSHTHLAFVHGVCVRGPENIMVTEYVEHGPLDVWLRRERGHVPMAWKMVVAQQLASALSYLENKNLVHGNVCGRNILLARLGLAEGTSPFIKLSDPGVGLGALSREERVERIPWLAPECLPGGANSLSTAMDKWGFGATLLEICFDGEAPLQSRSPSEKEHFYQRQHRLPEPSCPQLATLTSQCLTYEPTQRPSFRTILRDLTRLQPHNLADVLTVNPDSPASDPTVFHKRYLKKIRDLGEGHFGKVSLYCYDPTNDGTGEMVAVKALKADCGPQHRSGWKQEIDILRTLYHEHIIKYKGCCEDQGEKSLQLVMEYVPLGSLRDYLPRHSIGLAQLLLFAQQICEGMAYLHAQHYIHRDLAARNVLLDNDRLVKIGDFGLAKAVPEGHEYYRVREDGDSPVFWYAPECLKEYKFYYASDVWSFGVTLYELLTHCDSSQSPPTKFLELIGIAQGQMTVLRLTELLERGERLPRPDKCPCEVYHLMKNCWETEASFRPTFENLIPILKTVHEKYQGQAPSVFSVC

[6] = tested on: IL-6-stimulated STAT3 phosphorylation; assay: Phospho-STAT western blot in 22Rv1 cells expressing JAK1 variants; format: cell-based, human
[7] = biological target: JAK1 phosphorylation (pJAK1; Y1034/Y1035) (Homo sapiens, UniProt P23458); assay: JAK1 phosphorylation western blot in 22Rv1 cells expressing JAK1 variants; format: cell-based; settings: WT- and C810A-JAK1
Chain of JAK1 phosphorylation (pJAK1; Y1034/Y1035) (Homo sapiens, UniProt P23458) (P23458 whole entry): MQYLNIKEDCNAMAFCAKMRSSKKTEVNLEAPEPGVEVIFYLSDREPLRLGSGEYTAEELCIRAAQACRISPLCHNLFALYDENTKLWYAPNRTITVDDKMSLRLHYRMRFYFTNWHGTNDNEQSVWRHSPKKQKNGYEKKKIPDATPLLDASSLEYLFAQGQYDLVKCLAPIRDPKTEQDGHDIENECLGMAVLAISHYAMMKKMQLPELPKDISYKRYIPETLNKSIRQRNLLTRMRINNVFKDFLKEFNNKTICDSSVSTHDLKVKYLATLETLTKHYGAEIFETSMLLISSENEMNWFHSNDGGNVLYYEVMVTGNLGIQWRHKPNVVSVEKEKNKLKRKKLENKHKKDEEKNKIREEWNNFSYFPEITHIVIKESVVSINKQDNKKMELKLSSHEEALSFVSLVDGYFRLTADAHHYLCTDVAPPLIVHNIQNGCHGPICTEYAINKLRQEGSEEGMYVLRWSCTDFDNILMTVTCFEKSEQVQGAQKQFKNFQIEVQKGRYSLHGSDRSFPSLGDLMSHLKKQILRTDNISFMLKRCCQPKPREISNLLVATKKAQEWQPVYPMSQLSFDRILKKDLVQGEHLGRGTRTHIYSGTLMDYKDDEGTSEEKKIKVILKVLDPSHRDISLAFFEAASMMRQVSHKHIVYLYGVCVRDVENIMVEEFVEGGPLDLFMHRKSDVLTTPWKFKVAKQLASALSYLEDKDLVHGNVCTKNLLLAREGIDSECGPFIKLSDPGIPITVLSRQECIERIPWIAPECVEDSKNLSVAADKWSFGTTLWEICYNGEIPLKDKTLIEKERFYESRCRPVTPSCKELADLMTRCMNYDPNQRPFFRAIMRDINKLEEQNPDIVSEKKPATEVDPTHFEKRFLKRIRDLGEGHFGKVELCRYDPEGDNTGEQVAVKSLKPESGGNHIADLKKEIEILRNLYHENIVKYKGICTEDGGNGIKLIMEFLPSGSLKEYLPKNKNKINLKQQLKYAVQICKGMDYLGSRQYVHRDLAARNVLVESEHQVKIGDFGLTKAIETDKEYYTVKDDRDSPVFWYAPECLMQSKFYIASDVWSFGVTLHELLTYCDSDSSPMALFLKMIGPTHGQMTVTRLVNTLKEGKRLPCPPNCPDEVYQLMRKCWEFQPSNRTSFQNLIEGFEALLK

[8] = biological target: JAK1 phosphorylation (pJAK1; Y1034/Y1035) (Homo sapiens, UniProt P23458, C817A); assay: as above; format: cell-based; settings: C817A-JAK1; 2 µM, 2 h
Chain of JAK1 phosphorylation (pJAK1; Y1034/Y1035) (Homo sapiens, UniProt P23458, C817A) (P23458 whole entry C817A): as the sequence (P23458 whole entry) above, with C817A counted along it

[9] = tested on: IFNα-stimulated STAT1 phosphorylation (TYK2-dependent); assay: Phospho-STAT western blot in 22Rv1 cells expressing TYK2 variants; format: cell-based, human; settings: WT-TYK2 expressing 22Rv1 cells; 2 h
[10] = tested on: IFNα-stimulated STAT1 phosphorylation; assay: Phospho-STAT western blot in human PBMCs; format: cell-based; settings: 0.1 µM
[11] = tested on: IL-6-stimulated STAT3 phosphorylation; assay: Phospho-STAT western blot in human PBMCs; format: cell-based; settings: 0.1 µM
[12] = tested on: IL-2-stimulated STAT5 phosphorylation; assay: Phospho-STAT western blot in human PBMCs; format: cell-based; settings: 0.1–1 µM
[13] = tested on: GM-CSF stimulated STAT5 phosphorylation (JAK2-dependent); assay: Phospho-STAT western blot in human PBMCs; format: cell-based; settings: compound 2 h, GM-CSF 15 min
[14] = tested on: IFNα-dependent STAT1 phosphorylation; assay: Phospho-STAT western blot in mouse splenocytes; format: cell-based; settings: 0.01–0.1 µM
IL-12-STAT4 signaling = assay: Phospho-STAT western blot in mouse splenocytes; format: cell-based
[15] = tested on: IL-6-stimulated STAT3 phosphorylation; assay: Phospho-STAT western blot in mouse splenocytes; format: cell-based
[16] = biological target: recombinant purified JAK1 (aa 438 – 1154) (Homo sapiens, UniProt P23458); assay: In vitro kinase (peptide substrate, ADP-Glo) assay; format: biochemical
Chain of recombinant purified JAK1 (aa 438 – 1154) (P23458 438-1154): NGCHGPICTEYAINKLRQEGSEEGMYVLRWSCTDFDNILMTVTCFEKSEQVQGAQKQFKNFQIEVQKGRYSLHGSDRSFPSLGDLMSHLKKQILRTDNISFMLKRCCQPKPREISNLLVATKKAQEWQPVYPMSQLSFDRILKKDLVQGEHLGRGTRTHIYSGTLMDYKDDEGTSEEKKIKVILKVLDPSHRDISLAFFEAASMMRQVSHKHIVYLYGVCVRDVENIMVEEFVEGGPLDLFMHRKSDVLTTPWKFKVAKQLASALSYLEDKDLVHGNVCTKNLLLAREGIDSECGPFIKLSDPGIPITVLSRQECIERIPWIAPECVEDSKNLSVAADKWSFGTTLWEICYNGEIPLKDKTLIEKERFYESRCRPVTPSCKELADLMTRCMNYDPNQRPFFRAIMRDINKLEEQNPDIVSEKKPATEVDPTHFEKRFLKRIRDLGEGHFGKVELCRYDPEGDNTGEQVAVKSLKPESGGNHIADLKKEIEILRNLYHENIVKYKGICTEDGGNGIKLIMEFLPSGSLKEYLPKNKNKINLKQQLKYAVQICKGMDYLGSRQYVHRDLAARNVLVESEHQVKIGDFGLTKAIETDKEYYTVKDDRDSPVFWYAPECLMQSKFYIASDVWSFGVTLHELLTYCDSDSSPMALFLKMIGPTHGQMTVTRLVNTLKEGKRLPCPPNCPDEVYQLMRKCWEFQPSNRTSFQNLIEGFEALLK

[17] = tested on: IFNγ-stimulated STAT1 phosphorylation; assay: Phospho-STAT western blot in 22Rv1 cells expressing JAK1 variants; format: cell-based, human
[18] = tested on: αCD3/αCD28-stimulated primary human T cells (CD25, CD69); assay: T-cell activation analysis by flow cytometry; format: cell-based; settings: 24 h
[19] = tested on: αCD3/αCD28-stimulated primary human T cells (IFNγ, IL-2 secretion); assay: Cytokine secretion of activated T cells (ELISA); format: cell-based; settings: αCD3/αCD28 co-stimulation, 24 h
primary human T cells = assay: T-cell viability (Near IR Live/Dead stain); format: cell-based; settings: 24 h
[20] = tested on: IFNα-stimulated human PBMCs; assay: Multiplex immunoassay of cytokines/chemokines; format: cell-based; settings: compound 2 h, then IFNα 100 ng/mL, 16 h
[21] = biological target: recombinant JAK1 (WT, C810A, C817A) (Homo sapiens, UniProt P23458); assay: Gel-based ABPP in 22Rv1 cells; format: binding; settings: pre-treatment 0.01–1 μM, 2 h, in situ
Chain of recombinant JAK1 (WT, C810A, C817A) (P23458 whole entry C810A/C817A): as the sequence (P23458 whole entry) above, with C810A, C817A counted along it

T1 sequence (P23458 whole entry): as the sequence (P23458 whole entry) above

CS(=O)(=O)N1CC[C@H](C#CC(=O)N2CCC[C@@H](c3ccc(Cl)c(Cl)c3)C2)C1 [VVD-118313]
change of TE50 with preincubation time (JAK1_C817 [1]; Jurkat T-cell lysate, 10, 30 and 60 minutes): time-dependent decreases
potency compared with the corresponding diastereomers (5c and 5d) (JAK1_C817 [1]; TE50 and pSTAT pIC50): substantially more potent
IC50 ([2]; media supplemented with 10% fetal bovine serum (FBS)): 46 nM
IC50 ([2]; serum-free media): 32 nM
%Engagement (JAK1_C817 [3]; 0.01 µM): 84%
Engagement Ratio (DMSO/VVD-118313) (JAK1_C817 [3]; 0.01 µM): 6.3
Engagement Ratio (DMSO/VVD-118313) (JAK1_C817 [3]; 0.1 µM): 20.0
%Engagement (JAK1_C817 [3]; 1 µM): 96%
Engagement Ratio (DMSO/VVD-118313) (JAK1_C817 [3]; 1 µM): 20.0
%Engagement (JAK1_C817 [3]; 10 µM): 97%
Engagement Ratio (DMSO/VVD-118313) (JAK1_C817 [3]; 10 µM): 20.0
Engagement Ratio (DMSO/VVD-118313) (HMOX2_C282; 0.01 µM): 1.0
%Engagement (HMOX2_C282; 0.1 µM): 27%
Engagement Ratio (DMSO/VVD-118313) (HMOX2_C282; 0.1 µM): 1.4
%Engagement (HMOX2_C282; 1 µM): engaged
Engagement Ratio (DMSO/VVD-118313) (HMOX2_C282; 1 µM): 12.5
%Engagement (HMOX2_C282; 10 µM): 98%
Engagement Ratio (DMSO/VVD-118313) (HMOX2_C282; 10 µM): 20.0
Engagement Ratio (DMSO/VVD-118313) (TOR4A_C21 [4]; 0.01 µM): 0.9
Engagement Ratio (DMSO/VVD-118313) (TOR4A_C21 [4]; 0.1 µM): 1.0
%Engagement (TOR4A_C21 [4]; 1 µM): 65%
Engagement Ratio (DMSO/VVD-118313) (TOR4A_C21 [4]; 1 µM): 2.9
%Engagement (TOR4A_C21 [4]; 10 µM): 92%
Engagement Ratio (DMSO/VVD-118313) (TOR4A_C21 [4]; 10 µM): 11.8
%Engagement (TOR4A_C21 [5]; 0.01 µM): 9%
Engagement Ratio (DMSO/VVD-118313) (TOR4A_C21 [5]; 0.01 µM): 1.1
%Engagement (TOR4A_C21 [5]; 0.1 µM): 49%
Engagement Ratio (DMSO/VVD-118313) (TOR4A_C21 [5]; 0.1 µM): 1.9
%Engagement (TOR4A_C21 [5]; 1 µM): 90%
Engagement Ratio (DMSO/VVD-118313) (TOR4A_C21 [5]; 1 µM): 10.0
%Engagement (TOR4A_C21 [5]; 10 µM): 97%
Engagement Ratio (DMSO/VVD-118313) (TOR4A_C21 [5]; 10 µM): 20.0
Engagement Ratio (DMSO/VVD-118313) (TYK2_C838; 0.01 µM): 0.9
%Engagement (TYK2_C838; 0.1 µM): 32%
Engagement Ratio (DMSO/VVD-118313) (TYK2_C838; 0.1 µM): 1.5
%Engagement (TYK2_C838; 1 µM): 83%
Engagement Ratio (DMSO/VVD-118313) (TYK2_C838; 1 µM): 5.9
%Engagement (TYK2_C838; 10 µM): 96%
Engagement Ratio (DMSO/VVD-118313) (TYK2_C838; 10 µM): 20.0
inhibition of IL-6-STAT3 phosphorylation ([6]; C817A-JAK1-expressing 22Rv1 cells, up to 2 µM): < 10%
effect on IL-6-stimulated pSTAT3 ([6]; WT- or C810A-JAK1-expressing 22Rv1 cells, 2 µM, 2 h): blocked
maximal inhibition of IL-6-STAT3 phosphorylation ([6]; WT- or C810A-JAK1-expressing 22Rv1 cells, at ~0.2 µM): > 80%
blockade of JAK1 phosphorylation (maximal activity) ([7]; 0.05 µM): > 90%
effect on constitutive JAK1 phosphorylation ([7]; 2 µM, 2 h): completely blocked
effect on constitutive JAK1 phosphorylation [8]: did not affect
effect on IFNα-induced STAT1 phosphorylation [9]: blocked
inhibition of IFNα-stimulated STAT1 phosphorylation [10]: > 85%
inhibition of IL-6-stimulated STAT3 phosphorylation [11]: > 85%
inhibition of IL-2-stimulated STAT5 phosphorylation [12]: ~ 70%
effect on GM-CSF stimulated STAT5 phosphorylation [13]: no effect; also recorded: modest inhibitory effects
effect on IFNα-dependent STAT1 phosphorylation [14]: inhibited
effect on IL-12-STAT4 signaling (IL-12-STAT4 signaling): sparing
effect on IL-6-dependent STAT3 phosphorylation ([15]; Tyk2−/− splenocytes): fully blocked
effect on IL-6-stimulated STAT3 phosphorylation ([15]; WT mouse splenocytes): did not inhibit
effect on catalytic activity of recombinant purified JAK1 ([16]; peptide substrate assay): did not inhibit
IC50 ([16]; read-out: IC50, JAK1 substrate assay, 30 min preincubation, IRS-1 peptide, ATP 50 µM, 1 h): > 50 µM
blockade of IFNγ-stimulated STAT1 phosphorylation ([17]; K908E-JAK1-expressing 22Rv1 cells): ~ 40%
blockade of IFNγ-stimulated STAT1 phosphorylation ([17]; K908E/C817A-JAK1-expressing 22Rv1 cells): not observed
effect on IFNγ-stimulated STAT1 phosphorylation ([17]; WT-JAK1 transfected 22Rv1 cells, 1 μM, 2 h): Neither VVD-118313 nor the TYK2 inhibitor BMS-986165 altered
CD25+ (% of live cells) ([18]; 0.4 μM, representative flow cytometry plot): 83%
T-cell activation (proportion of CD25+ T-cells) ([18]; αCD3/αCD28 co-stimulation): partially inhibited
early-stage activation marker CD69 ([18]; αCD3/αCD28 co-stimulation): Neither compound affected
production of IL-2 [19]: slightly increased
secretion of IFNγ [19]: partially blocked
T-cell viability (primary human T cells): Neither compound affected
induction of pro-inflammatory chemokines (CCL2/MCP-1, CXCL10/IP-10, CCL4/MIP-1β) [20]: near-completely suppressed
competition of probe 6 labeling of WT-JAK1 [21]: blocked in a concentration-dependent manner
